Columns and labels:
[1] = system: Eleusine indica biotypes (S, R1, R2); assay: Herbicide rate screening assay (greenhouse, foliar-applied, visual injury); assay type: in vivo; details: for I50, estimated rate required to reduce Eleusine indica biotype by 50% (Visual Control/Injury) / I90, estimated rate required to reduce Eleusine indica biotype by 90% (Visual Control/Injury): injury scores 14 days after treatment; for Parameter estimate a of sigmoidal model y = a/(1 + exp(−(x − x0)/b)) for percent injury / Parameter estimate b of sigmoidal model y = a/(1 + exp(−(x − x0)/b)) for percent injury / Parameter estimate x0 of sigmoidal model y = a/(1 + exp(−(x − x0)/b)) for percent injury: x = log-transformed herbicide rate (kg/ha), 14 DAT; for Control at labelled rate application: oxadiazon 2.24 kg/ha
Source text: Three E. indica biotypes from different locations were used in this study. The R1 biotype was collected in Country Club of Virginia, Richmond, Va., and the R2 biotype was from River Bend Golf, New Bern, N.C. These two biotypes were previous confirmed resistant to preemergence application of oxadiazon, but have not been screened to other PPO inhibitors. The S biotype was collected from the Alabama Agricultural Experiment Station, Plant Breeding Unit, Tallassee, Ala., which was confirmed susceptible to PPO inhibitors. Seeds of the mature plants were harvested, air dried and stored in the 4° C. freezer until planted in the greenhouse.
Greenhouse conditions were 30±3° C. at day/night temperature and ˜70% average relative humidity. The E. indica seeds were placed on the soil surface and lightly covered with sand in 28 cm*20 cm flats and watered as needed daily to ensure germination. Two weeks after emergence, seedlings were separated and transplanted to in individual 10-cm pots (volumes=0.5 L). Pots were filled with surface horizon of Marvyn sandy loam (fine-loamy, kaolinitic, thermic Typic Kanhapludults) soil with pH 6.4 and 1.2% organic matter. The plants were irrigated three times daily for 2 min with overhead irrigation and fertilized once at one week after transplanting at approximately 50 kg N ha^−1 with Scott's Miracle-Gro All-Purpose fertilizer (The Scotts Miracle-Gro Co. Marysville, Ohio). Plants were 5-10 cm in height with 3-5 tillers in size at the time of herbicide treatment.
Herbicide treatments were foliar-applied at 280 L/ha using an enclosed spray chamber with a single 8002E nozzle (TeeJet Spray Systems Co, Wheaton, Ill.) at 32 PSI. Four herbicides were selected for the experiment: oxadiazon (Ronstar FLO, Bayer Environmental Sci., Research Triangle Park, N.C.), sulfentrazone (Dismiss, FMC Corporation, Philadelphia, Pa.), flumioxazin (Sureguard, Valent Corp., Walnut Creek, Calif.) and lactofen (Cobra, Valent Corp., Walnut Creek, Calif.). All the herbicides are from different herbicide chemical families of PPO inhibitors: oxadiazoles, triazolinone, N-phenylphthalimide and diphenyl ether, respectively. Herbicides were applied at 7 different rates based on each herbicide label rate: oxadiazon ranging from 0.14 to 8.96 kg/ha, sulfentrazone from 0.07 to 4.50 kg/ha, flumioxazin from 0.08 to 5.70 kg/ha, and lactofen from 0.029 to 1.75 kg/ha. A non-treated control (0 kg/ha) was included. 192 plants of each biotype were tested and experiments were conducted as completely random design, three replications for two runs.
The visual injury rating scores per plant at 14 days after treatment (DAT) were recorded, where the visual injury rating scores were based on a 0 to 100 scale, which 0 is equated to no phytotoxicity and 100 is equated to complete control. Data subjected to ANOVA analysis at a significance level of P<0.05 using the PROC GLM procedure of SAS 9.4 (SAS Institute Inc., Cary, N.C.). All the herbicide rates were log transformed to make equal spacing between the herbicide treatments in order to facilitate regression analysis. The non-treated control was transformed to equal spacing based on the log rates of each herbicide, respectively. Data were fitted to a sigmoidal model using SigmaPlot 10.2 (Systat Software Inc., London, UK) using a sigmoidal function (Equation 1).
y=a/(1+e^(−((x−x0)/b))) (1)
In this fit sigmoidal model, where y represents E. indica visual damage relative to non-treated control (%), x represents the log-transformed herbicide rates (kg/ha), three parameters (a, b, x0) represents the y intercept.

Senna obtusifolia = assay: Weed control screen: sicklepod; assay type: in vivo; details: 1.0 lb ai/a, applied approximately 3 weeks after emergence, relative to non-treated
Protocol: (§1) Herbicides were applied at a spray volume of 280 L/ha with no adjuvant added to any herbicide mixture. Weed control was rated on a 0 to 100 percent phytoxicity scale with 0 being no plant injury/phytotoxicity and 100 being complete plant dessication. Twenty-one weeds were evaluated for response to herbicides (Table 3). The weeds selected were a mixture of weeds common in agronomic and horticultural crops. Herbicide was applied to all species approximately 3 weeks after emergence. Plant phytotoxicity rated as percent control relative to the non-treated.

Solanum carolinense = assay: Weed control screen: Carolina horsenettle; assay type: in vivo; details: 1.0 lb ai/a, applied approximately 3 weeks after emergence, relative to non-treated
Protocol: as §1

[2] = system: PPO1 from R1 and R2 E. indica biotypes (A212T) expressed in hemG mutant E. coli strain SASX38; assay: hemG mutant E. coli SASX38 complementation assay, R1 and R2 PPO1; assay type: cell-based, Eleusine indica; details: R1 and R2 alleles; LB medium; 0, 10, 50, 100, 200 μM tested; 37° C., 20 h
Source text: Two putative PPO-inhibitor resistant (R-) and susceptible (S-) plasmids were created to test the role of the chloroplast-targeted PPO1 in the E. indica biotypes. The PPO1 from R1, R2 and S E. indica biotypes were cloned into the pBAD-TOPO expression vector using the pBAD TOPO™ TA Expression kit (Invitrogen, Carlsbad, Calif.), respectively. The PPO1 product was amplified using the same PCR primers and PCR reaction system as cDNA sequencing, so that the PPO1 translation began at the ATG start codon. Three different pBAD-TOPO PPO1 constructs were created and sequenced to confirm they were identical with the PPO1 gene from R1, R2 and S E. indica biotypes and there were no other nucleotide polymorphisms in the cloning experiment. R- and S-PPO1 plasmids were used to transform a hemG mutant Escherichia coli strain SASX38 by electroporation. The SASX38 mutant strain was grown on LB medium supplemented with 10 μg/mL hematin. Expression of the PPO1 in the transformed colonies of the SASX38 mutant strain were induced on LB medium with 2% L-arabinose. […]

Ipomoea hederacea = assay: Weed control screen: entireleaf morningglory; assay type: in vivo; details: 1.0 lb ai/a, applied approximately 3 weeks after emergence, relative to non-treated
Protocol: as §1

## CC(C)Oc1cc(-n2nc(C(C)(C)C)oc2=O)c(Cl)cc1Cl [Oxadiazon, oxadiazon]
[1]; R1 and R2 vs S biotype, post-emergence applied
  Increased resistance of oxadiazon resistant biotypes than the susceptible biotype: up to 20 fold
[1]; R1 biotype
  I50, estimated rate required to reduce Eleusine indica biotype by 50% (Visual Control/Injury): 8.15 kg ha^−1
  I90, estimated rate required to reduce Eleusine indica biotype by 90% (Visual Control/Injury): 14.60 kg ha^−1
  Parameter estimate a of sigmoidal model y = a/(1 + exp(−(x − x0)/b)) for percent injury: 9925.40
  Parameter estimate b of sigmoidal model y = a/(1 + exp(−(x − x0)/b)) for percent injury: 0.53
  Parameter estimate x0 of sigmoidal model y = a/(1 + exp(−(x − x0)/b)) for percent injury: 3.75
[1]; R2 biotype
  I50, estimated rate required to reduce Eleusine indica biotype by 50% (Visual Control/Injury): 8.88 kg ha^−1
  I90, estimated rate required to reduce Eleusine indica biotype by 90% (Visual Control/Injury): 18.29 kg ha^−1
  Parameter estimate a of sigmoidal model y = a/(1 + exp(−(x − x0)/b)) for percent injury: 64371.40
  Parameter estimate b of sigmoidal model y = a/(1 + exp(−(x − x0)/b)) for percent injury: 0.43
  Parameter estimate x0 of sigmoidal model y = a/(1 + exp(−(x − x0)/b)) for percent injury: 3.99
[1]; S biotype
  I50, estimated rate required to reduce Eleusine indica biotype by 50% (Visual Control/Injury): 0.32 kg ha^−1
  I90, estimated rate required to reduce Eleusine indica biotype by 90% (Visual Control/Injury): 1.56 kg ha^−1
  Control at labelled rate application: > 80%
  Parameter estimate a of sigmoidal model y = a/(1 + exp(−(x − x0)/b)) for percent injury: 91.25
  Parameter estimate b of sigmoidal model y = a/(1 + exp(−(x − x0)/b)) for percent injury: 0.25
  Parameter estimate x0 of sigmoidal model y = a/(1 + exp(−(x − x0)/b)) for percent injury: −0.54
[1]; resistant biotypes (R1 and R2), flumioxazin 0.357 kg/ha, sulfentrazone 0.28 kg/ha, lactofen 0.22 kg/ha
  Control at labelled rate application: < 20%
[1]; resistant biotypes (R1 and R2), flumioxazin 0.357 kg/ha, sulfentrazone 0.28 kg/ha, lactofen 0.22 kg/ha, listed as oxadiazon
  Control at labelled rate application: less than 10%
Senna obtusifolia
  Percent control (0 to 100): 90%
Solanum carolinense
  Percent control (0 to 100): 60%
[2]
  Concentration at which the transformed E. coli were able to grow: up to 200 μM
Ipomoea hederacea
  Percent control (0 to 100): 100%
